Read-outs that look alike come from different tables or passages of the source.
Experiments:
circular dichroism = conditions: phosphate buffer (PB); pH 7.2; 20 °C; 10-50 uM
[1] = Dithiocarbamate (DTC) stapling of unprotected peptides: Lys side-chain amine + CS2 (Et3N) gives Lys-NH-C(=S)S-, then intramolecular thia-Michael addition to dehydroalanine (Dha, made beforehand from Cys with 2,5-dibromohexanediamide and HPLC-purified); conditions: the molecule shown is the open-chain precursor, 21-membered ring, ethanol/Et3N/CS2 10:1:1 v/v
[2] = the molecule shown is the open-chain precursor; 21-membered ring
[3] = Circular dichroism spectroscopy, helical content; format: physicochemical; conditions: CD, PB pH 7.2, 10-50 μM peptide, 20 °C
Procedure: Circular Dichroism (CD) Spectroscopy.
(§1) from 10-50 μM. […] The spectra were […]

cathepsin G = cathepsin G (Homo sapiens, UniProt P08311); conditions: 100 μM peptide, cell culture medium (RPMI 1640), 25 μg/ml cathepsin G, room temperature, RP-HPLC and ESI-MS
Chain of cathepsin G (P08311 21-255, species assumed): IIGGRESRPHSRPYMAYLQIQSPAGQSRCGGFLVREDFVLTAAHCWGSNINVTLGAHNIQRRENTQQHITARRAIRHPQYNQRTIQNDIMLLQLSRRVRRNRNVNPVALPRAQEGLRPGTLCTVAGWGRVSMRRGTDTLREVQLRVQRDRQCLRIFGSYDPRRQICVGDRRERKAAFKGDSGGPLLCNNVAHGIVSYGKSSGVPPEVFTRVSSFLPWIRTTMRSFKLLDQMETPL
Procedure: and three independent experiments were performed.
Fluorescence polarization (FP).
As an additional positive control, we
Tecan Infinite M1000 plate reader. […]
additional incubation for 64 hours.
Circular Dichroism (CD) Spectroscopy. […]
as §1
of each peptide was calculated as reported previously. 12
Stability in GSH. […] RP-

Molecule	helicity (circular dichroism)	ring closure, isolated yield [1]	other results
CC(=O)N[C@H](C(=O)N[C@@H](CO)C(=O)N[C@@H](Cc1ccccc1)C(=O)N[C@@H](C)C(=O)N[C@@H](CCC(=O)O)C(=O)N[C@@H](Cc1ccc(O)cc1)C(=O)N[C@@H](Cc1c[nH]c2ccccc12)C(=O)N[C@H]1CCCCNC(=S)SC[C@@H](C(N)=O)NC(=O)[C@H](CO)NC(=O)[C@H](CC(C)C)NC(=O)[C@H](CC(C)C)NC1=O)[C@@H](C)O	43.3%		
CC(=O)N[C@H](C(=O)N[C@@H](CO)C(=O)N[C@@H](Cc1ccccc1)C(=O)N[C@@H](C)C(=O)N[C@@H](CCC(=O)O)C(=O)N[C@@H](Cc1ccc(O)cc1)C(=O)N[C@@H](Cc1c[nH]c2ccccc12)C(=O)N[C@H]1CSC(=S)NCCCC[C@@H](C(N)=O)NC(=O)[C@H](CO)NC(=O)[C@H](CC(C)C)NC(=O)[C@H](CC(C)C)NC1=O)[C@@H](C)O	0.23%		
CC(=O)N[C@H](C(=O)N[C@@H](CO)C(=O)N[C@@H](Cc1ccccc1)C(=O)N[C@@H](C)C(=O)N[C@H]1CCCCNC(=S)SC[C@@H](C(=O)N[C@@H](CC(C)C)C(=O)N[C@@H](CO)C(=O)N2CCC[C@H]2C(N)=O)NC(=O)[C@H](CC(N)=O)NC(=O)[C@H](Cc2c[nH]c3ccccc23)NC(=O)[C@H](Cc2ccc(O)cc2)NC1=O)[C@@H](C)O	6.88%		
CC(=O)N[C@H](C(=O)N[C@@H](CO)C(=O)N[C@@H](Cc1ccccc1)C(=O)N[C@@H](C)C(=O)N[C@H]1CSC(=S)NCCCC[C@@H](C(=O)N[C@@H](CC(C)C)C(=O)N[C@@H](CO)C(=O)N2CCC[C@H]2C(N)=O)NC(=O)[C@H](CC(N)=O)NC(=O)[C@H](Cc2c[nH]c3ccccc23)NC(=O)[C@H](Cc2ccc(O)cc2)NC1=O)[C@@H](C)O	9.58%		
CC(=O)N[C@H](C(=O)N[C@@H](CO)C(=O)N[C@@H](Cc1ccccc1)C(=O)N[C@H]1CCCCNC(=S)SC[C@@H](C(=O)N[C@@H](CC(C)C)C(=O)N[C@@H](CC(C)C)C(=O)N[C@@H](CO)C(=O)N2CCC[C@H]2C(N)=O)NC(=O)[C@H](Cc2c[nH]c3ccccc23)NC(=O)[C@H](Cc2ccc(O)cc2)NC(=O)[C@H](CCC(=O)O)NC1=O)[C@@H](C)O	39.3%		
CC(=O)N[C@H](C(=O)N[C@@H](CO)C(=O)N[C@@H](Cc1ccccc1)C(=O)N[C@H]1CSC(=S)NCCCC[C@@H](C(=O)N[C@@H](CC(C)C)C(=O)N[C@@H](CC(C)C)C(=O)N[C@@H](CO)C(=O)N2CCC[C@H]2C(N)=O)NC(=O)[C@H](Cc2c[nH]c3ccccc23)NC(=O)[C@H](Cc2ccc(O)cc2)NC(=O)[C@H](CCC(=O)O)NC1=O)[C@@H](C)O	9.15%		
CC(=O)N[C@H](C(=O)N[C@H]1CCCCNC(=S)SC[C@@H](C(=O)N[C@@H](Cc2c[nH]c3ccccc23)C(=O)N[C@@H](CC(N)=O)C(=O)N[C@@H](CC(C)C)C(=O)N[C@@H](CC(C)C)C(=O)N[C@@H](CO)C(=O)N2CCC[C@H]2C(N)=O)NC(=O)[C@H](CCC(=O)O)NC(=O)[C@H](C)NC(=O)[C@H](Cc2ccccc2)NC1=O)[C@@H](C)O	15.3%		
CC(=O)N[C@H](C(=O)N[C@H]1CSC(=S)NCCCC[C@@H](C(=O)N[C@@H](Cc2c[nH]c3ccccc23)C(=O)N[C@@H](CC(N)=O)C(=O)N[C@@H](CC(C)C)C(=O)N[C@@H](CC(C)C)C(=O)N[C@@H](CO)C(=O)N2CCC[C@H]2C(N)=O)NC(=O)[C@H](CCC(=O)O)NC(=O)[C@H](C)NC(=O)[C@H](Cc2ccccc2)NC1=O)[C@@H](C)O	4.81%		
CC(=O)N[C@H]1CSC(=S)NCCCC[C@@H](C(=O)N[C@@H](Cc2ccc(O)cc2)C(=O)N[C@@H](Cc2c[nH]c3ccccc23)C(=O)N[C@@H](CC(N)=O)C(=O)N[C@@H](CC(C)C)C(=O)N[C@@H](CC(C)C)C(=O)N[C@@H](CO)C(=O)N2CCC[C@H]2C(N)=O)NC(=O)[C@H](C)NC(=O)[C@H](Cc2ccccc2)NC(=O)[C@H](CO)NC1=O	8.38%		
C=C(NC(C)=O)C(=O)N[C@@H](CO)C(=O)N[C@@H](Cc1ccccc1)C(=O)N[C@@H](C)C(=O)N[C@@H](CCCCNC(=S)S)C(=O)N[C@@H](Cc1ccc(O)cc1)C(=O)N[C@@H](Cc1c[nH]c2ccccc12)C(=O)N[C@@H](CC(N)=O)C(=O)N[C@@H](CC(C)C)C(=O)N[C@@H](CC(C)C)C(=O)N[C@@H](CO)C(=O)N1CCC[C@H]1C(N)=O [Ac-Dha-Ser-Phe-Ala-Lys-Tyr-Trp-Asn-Leu-Leu-Ser-Pro-NH2]		37%	
C=C(NC(=O)[C@H](C)NC(=O)[C@H](Cc1ccccc1)NC(=O)[C@H](CO)NC(=O)[C@H](CCCCNC(=S)S)NC(C)=O)C(=O)N[C@@H](Cc1ccc(O)cc1)C(=O)N[C@@H](Cc1c[nH]c2ccccc12)C(=O)N[C@@H](CC(N)=O)C(=O)N[C@@H](CC(C)C)C(=O)N[C@@H](CC(C)C)C(=O)N[C@@H](CO)C(=O)N1CCC[C@H]1C(N)=O [Ac-Lys-Ser-Phe-Ala-Dha-Tyr-Trp-Asn-Leu-Leu-Ser-Pro-NH2]		28%	
C=C(NC(=O)[C@@H](NC(C)=O)[C@@H](C)O)C(=O)N[C@@H](Cc1ccccc1)C(=O)N[C@@H](C)C(=O)N[C@@H](CCC(=O)O)C(=O)N[C@@H](CCCCNC(=S)S)C(=O)N[C@@H](Cc1c[nH]c2ccccc12)C(=O)N[C@@H](CC(N)=O)C(=O)N[C@@H](CC(C)C)C(=O)N[C@@H](CC(C)C)C(=O)N[C@@H](CO)C(=O)N1CCC[C@H]1C(N)=O [Ac-Thr-Dha-Phe-Ala-Glu-Lys-Trp-Asn-Leu-Leu-Ser-Pro-NH2]		39%	
C=C(NC(=O)[C@H](CCC(=O)O)NC(=O)[C@H](C)NC(=O)[C@H](Cc1ccccc1)NC(=O)[C@H](CCCCNC(=S)S)NC(=O)[C@@H](NC(C)=O)[C@@H](C)O)C(=O)N[C@@H](Cc1c[nH]c2ccccc12)C(=O)N[C@@H](CC(N)=O)C(=O)N[C@@H](CC(C)C)C(=O)N[C@@H](CC(C)C)C(=O)N[C@@H](CO)C(=O)N1CCC[C@H]1C(N)=O [Ac-Thr-Lys-Phe-Ala-Glu-Dha-Trp-Asn-Leu-Leu-Ser-Pro-NH2]		34%	
C=C(NC(=O)[C@H](C)NC(=O)[C@H](Cc1ccccc1)NC(=O)[C@H](CO)NC(=O)[C@@H](NC(C)=O)[C@@H](C)O)C(=O)N[C@@H](Cc1ccc(O)cc1)C(=O)N[C@@H](Cc1c[nH]c2ccccc12)C(=O)N[C@@H](CC(N)=O)C(=O)N[C@@H](CCCCNC(=S)S)C(=O)N[C@@H](CC(C)C)C(=O)N[C@@H](CO)C(=O)N1CCC[C@H]1C(N)=O [Ac-Thr-Ser-Phe-Ala-Dha-Tyr-Trp-Asn-Lys-Leu-Ser-Pro-NH2]		27%	
C=C(NC(=O)[C@H](Cc1c[nH]c2ccccc12)NC(=O)[C@H](Cc1ccc(O)cc1)NC(=O)[C@H](CCC(=O)O)NC(=O)[C@H](C)NC(=O)[C@H](Cc1ccccc1)NC(=O)[C@H](CO)NC(=O)[C@@H](NC(C)=O)[C@@H](C)O)C(=O)N[C@@H](CC(C)C)C(=O)N[C@@H](CC(C)C)C(=O)N[C@@H](CO)C(=O)N[C@@H](CCCCNC(=S)S)C(N)=O [Ac-Thr-Ser-Phe-Ala-Glu-Tyr-Trp-Dha-Leu-Leu-Ser-Lys-NH2]			ring closure, isolated yield [2]: 38%
C=C(NC(=O)[C@H](CO)NC(=O)[C@H](CC(C)C)NC(=O)[C@H](CC(C)C)NC(=O)[C@H](CCCCNC(=S)S)NC(=O)[C@H](Cc1c[nH]c2ccccc12)NC(=O)[C@H](Cc1ccc(O)cc1)NC(=O)[C@H](CCC(=O)O)NC(=O)[C@H](C)NC(=O)[C@H](Cc1ccccc1)NC(=O)[C@H](CO)NC(=O)[C@@H](NC(C)=O)[C@@H](C)O)C(N)=O [Ac-Thr-Ser-Phe-Ala-Glu-Tyr-Trp-Lys-Leu-Leu-Ser-Dha-NH2]			ring closure, isolated yield [2]: 45%
C=C(NC(=O)[C@H](CC(N)=O)NC(=O)[C@H](Cc1c[nH]c2ccccc12)NC(=O)[C@H](Cc1ccc(O)cc1)NC(=O)[C@H](CCCCNC(=S)S)NC(=O)[C@H](C)NC(=O)[C@H](Cc1ccccc1)NC(=O)[C@H](CO)NC(=O)[C@@H](NC(C)=O)[C@@H](C)O)C(=O)N[C@@H](CC(C)C)C(=O)N[C@@H](CO)C(=O)N1CCC[C@H]1C(N)=O [Ac-Thr-Ser-Phe-Ala-Lys-Tyr-Trp-Asn-Dha-Leu-Ser-Pro-NH2]		24%	
C=C(NC(=O)[C@H](Cc1ccccc1)NC(=O)[C@H](CO)NC(=O)[C@@H](NC(C)=O)[C@@H](C)O)C(=O)N[C@@H](CCC(=O)O)C(=O)N[C@@H](Cc1ccc(O)cc1)C(=O)N[C@@H](Cc1c[nH]c2ccccc12)C(=O)N[C@@H](CCCCNC(=S)S)C(=O)N[C@@H](CC(C)C)C(=O)N[C@@H](CC(C)C)C(=O)N[C@@H](CO)C(=O)N1CCC[C@H]1C(N)=O [Ac-Thr-Ser-Phe-Dha-Glu-Tyr-Trp-Lys-Leu-Leu-Ser-Pro-NH2]		33%	
C=C(NC(=O)[C@H](Cc1c[nH]c2ccccc12)NC(=O)[C@H](Cc1ccc(O)cc1)NC(=O)[C@H](CCC(N)=O)NC(=O)[C@H](CCCCNC(=S)S)NC(=O)[C@H](Cc1ccccc1)NC(=O)[C@H](CO)NC(=O)[C@@H](NC(C)=O)[C@@H](C)O)C(=O)N[C@@H](CC(C)C)C(=O)N[C@@H](CC(C)C)C(=O)N[C@@H](CO)C(=O)N[C@@H](CCCNC(=N)N)C(N)=O [Ac-Thr-Ser-Phe-Lys-Gln-Tyr-Trp-Dha-Leu-Leu-Ser-Arg-NH2]		46%	
C=C(NC(=O)[C@H](Cc1c[nH]c2ccccc12)NC(=O)[C@H](Cc1ccc(O)cc1)NC(=O)[C@H](CCC(=O)O)NC(=O)[C@H](CCCCNC(=S)S)NC(=O)[C@H](Cc1ccccc1)NC(=O)[C@H](CO)NC(=O)[C@@H](NC(C)=O)[C@@H](C)O)C(=O)N[C@@H](CC(C)C)C(=O)N[C@@H](CC(C)C)C(=O)N[C@@H](CO)C(=O)N1CCC[C@H]1C(N)=O [Ac-Thr-Ser-Phe-Lys-Glu-Tyr-Trp-Dha-Leu-Leu-Ser-Pro-NH2]		42%	
Ac-TSFAEYWNLLSP-NH2 [PMI-0]			α-Helix (%) [3]: 9.77%; time to full degradation by cathepsin G (cathepsin G): ≤ 30 min

From PMC6357863, “Dithiocarbamate-inspired side chain stapling chemistry for peptide drug design” (Chemical Science, 2018)
